Reference: US20250041307A1, “Uses of Bicyclic Compounds for the Treatment of Diseases” (Athira Pharma, Inc., priority 2021, published 2025)

What was measured:
[1] = Parallel artificial membrane permeability assay (PAMPA); type: in vitro ADME; details: PBS, room temperature for 5 hours, 200 uM in donor well
Method: Bioavailable drugs must permeate the cellular membranes of the lining of the digestive tract. To estimate the penetrability of exemplary compounds, the in vitro parallel artificial membrane permeability assay (PAMPA) was utilized.
Test compounds must have a standard curve in the final read plate to determine partitioned concentration of each drug. A 6-point standard curve was prepared for each compound from 0 to 200 μM in phosphate-buffered saline (PBS).
Test compound solution (300 μL in PBS) was added to the donor (bottom) well of the PAMPA plate in 5 replicates and PBS vehicle (200 μL) was added to the acceptor (top) wells of appropriate wells to match the loading of the donor plate. The bottom and top of the PAMPA plates were then sandwiched together. The PAMPA plates were then incubated at room temperature for 5 hours. After incubation, 150 μL of donor solution was added to a UV compatible plate containing the corresponding standard curve. 150 μL of acceptor well solution was added adjacent to the corresponding standard curve and donor well samples for that compound. The plate was then read using a UV plate reader.
Permeability and membrane retention were then calculated based on the following formulas:
where: • A=filter area (0.3 cm^2); • VD=donor well volume (0.3 mL); • VA=acceptor well volume (0.2 mL); • t=incubation time (seconds); • CA(t)=compound concentration in acceptor well at time t; • CD(t)=compound concentration in donor well at time t; and
where: • CD(t), VD, CA(t), and VA are as defined for equation 1, and • C0=initial concentration in donor well (200 uM).

[2] = In vitro stability in rat plasma; type: in vitro ADME; details: 5 μM, 37° C.
Method: (§1) Bioavailability can be estimated by compound stability when exposed to conditions in the body. As an initial assessment of stability properties in a variety of conditions present in animals, exemplary compounds were tested for stability in a battery of simulated body compartments. Compounds were tested for stability in the following solutions: simulated gastric fluid (SGF: 34.2 mM NaCl, pH 1.2), simulated gastric fluid with the digestive enzyme pepsin (SGF+Enzyme: SGF with 3.2 mg/ml pepsin), simulated intestinal fluid with the mixture of enzymes in porcine pancreatin (SIF+Enzyme: 28.7 mM NaH2PO4, 105.7 mM NaCl, pH 6.8, 10 mg/ml pancreatin), rat plasma, and human plasma.
(§2) Test compounds were incubated at a final concentration of 5 μM in the above solutions at 37° C. with samples removed at the following time points: 0, 1, 2, and 4 hours. Reactions were stopped and prepared for quantification by addition of excess quench solution containing an internal standard (acetonitrile, 200 ng/mL bucetin). Test compound and internal standard in each sample was quantified by LC-MS/MS, and after internal normalization to bucetin, test compound concentration was expressed as a percentage of concentration at the 0-hour time point. Stability in the relevant test solution was then determined by the percent remaining at the 4-hour time point.

[3] = In vitro stability in human plasma; type: in vitro ADME; details: 5 μM, 37° C.
Method: as §1, §2

[4] = In vivo tissue distribution; parameters: species or system Sprague-dawley rats; details: rat, 10 minutes post administration
Method: The rate of distribution to target tissues is an important feature of therapeutic molecules. Tissue distribution of exemplary compounds was performed in mixed-sex Sprague-dawley rats. Test compounds were delivered via tail vein injection (IV) and tissues were collected at Tmax (10 minutes post administration). Animals were deeply anesthetized with isoflurane and whole blood was collected from the right atrium and processed by centrifugation to produce plasma. Animals were then fully perfused with PBS administered to the left ventricle to prevent blood contamination of tissues.
Tissues were collected and homogenized, and compound content in the target tissue was quantified by LC-MS/MS. Tissue distribution rates were determined by dividing the tissue concentration of compound by the plasma concentration and multiplying by 100.

Papp at 5 h, 200 uM [1] [×10⁻⁶ cm/s] | Compound | Rat Plasma, compound remaining after 4 hours [2] | Human Plasma, compound remaining after 4 hours [3] | Tissue Distribution (% Plasma exposure at 10 min post IV dose) Brain [4] | Tissue Distribution (% Plasma exposure at 10 min post IV dose) Cerebellum [4] | Tissue Distribution (% Plasma exposure at 10 min post IV dose) Cortex [4] | Tissue Distribution (% Plasma exposure at 10 min post IV dose) Hippocampus [4] | Tissue Distribution (% Plasma exposure at 10 min post IV dose) Muscle [4] | Tissue Distribution (% Plasma exposure at 10 min post IV dose) Sciatic Nerve [4]
< 2 | CCC(C)CN1CC2N(C(=O)c3ccc(OC(F)F)cc3)CCC(=O)N2[C@@H](C)C1=O (stereo partly drawn) [Compound 2a] | ++ (++ indicates 40-79% compound remaining after 4 hours) | ++ (++ indicates 40-79% compound remaining after 4 hours) | ++ (++ indicates distribution between 5 and 39%) | + (+ indicates distribution between 0.05 and 5%) | ++ (++ indicates distribution between 5 and 39%) | ++ (++ indicates distribution between 5 and 39%) | ++++ (++++ indicates distribution above 70%) | ++++ (++++ indicates distribution above 70%)
< 2 | CCC(C)CN1CC2N(Cc3ccc(OC(F)F)cc3)CCC(=O)N2[C@@H](C)C1=O (stereo partly drawn) [Compound 6a] | +++ (+++ indicates 80-99% compound remaining after 4 hours) | ++ (++ indicates 40-79% compound remaining after 4 hours) | ++ (++ indicates distribution between 5 and 39%) | ++ (++ indicates distribution between 5 and 39%) | ++ (++ indicates distribution between 5 and 39%) | ++ (++ indicates distribution between 5 and 39%) | ++++ (++++ indicates distribution above 70%) | ++++ (++++ indicates distribution above 70%)
> 10 | CCC(C)CN1CC2N(Cc3ccc(O)nc3)CCC(=O)N2[C@@H](C)C1=O (stereo partly drawn) [Compound 7a] |  |  | + (+ indicates distribution between 0.05 and 5%) | + (+ indicates distribution between 0.05 and 5%) | + (+ indicates distribution between 0.05 and 5%) | + (+ indicates distribution between 0.05 and 5%) | ++ (++ indicates distribution between 5 and 39%) | ++++ (++++ indicates distribution above 70%)
> 10 | CCC(C)CN1CC2N(C(=O)c3ccc(O)cc3)CCC(=O)N2[C@@H](C)C1=O (stereo partly drawn) [Compound 8a] | ++++ (++++ indicates 100% compound remaining after 4 hours) | ++ (++ indicates 40-79% compound remaining after 4 hours) |  |  |  |  |  | 
> 2 | CCC(C)CN1CC2N(C(=O)c3ccc(F)cc3)CCC(=O)N2C(C)C1=O (stereo not drawn) [Compound 11, 1-(4-fluorobenzoyl)-6-methyl-8-(2-methylbutyl)hexahydro-4H-pyrazino[1,2-a]pyrimidine-4,7(6H)-dione] | ++++ (++++ indicates 100% compound remaining after 4 hours) | +++ (+++ indicates 80-99% compound remaining after 4 hours) | ++ (++ indicates distribution between 5 and 39%) | + (+ indicates distribution between 0.05 and 5%) | + (+ indicates distribution between 0.05 and 5%) | + (+ indicates distribution between 0.05 and 5%) |  | ++ (++ indicates distribution between 5 and 39%)
< 2 | CCC(C)CN1CC2N(C(=O)c3ccc(C(F)(F)F)c(Cl)c3)CCC(=O)N2C(C)C1=O (stereo not drawn) [Compound 12, 1-(3-chloro-4-(trifluoromethyl)benzoyl)-6-methyl-8-(2-methylbutyl)hexahydro-4H-pyrazino[1,2-a]pyrimidine-4,7(6H)-dione] | ++++ (++++ indicates 100% compound remaining after 4 hours) | +++ (+++ indicates 80-99% compound remaining after 4 hours) | ++ (++ indicates distribution between 5 and 39%) | ++ (++ indicates distribution between 5 and 39%) | ++ (++ indicates distribution between 5 and 39%) | ++ (++ indicates distribution between 5 and 39%) |  | +++ (+++ indicates distribution between 40 and 69%)
> 2 | CCCCN1CC2N(C(=O)c3ccc(OC(F)F)cc3)CCC(=O)N2C(C)C1=O (stereo not drawn) [Compound 17] | ++ (++ indicates 40-79% compound remaining after 4 hours) | +++ (+++ indicates 80-99% compound remaining after 4 hours) |  |  |  |  |  | 
< 2 | CC1C(=O)N(CCC2CCCC2)CC2N(C(=O)c3ccc(C(F)(F)F)cc3)CCC(=O)N12 (stereo not drawn) [Compound 19] | +++ (+++ indicates 80-99% compound remaining after 4 hours) | +++ (+++ indicates 80-99% compound remaining after 4 hours) |  |  |  |  |  | 
< 2 | CC1C(=O)N(CCC2CCC2)CC2N(C(=O)c3ccc(C(F)(F)F)cc3)CCC(=O)N12 (stereo not drawn) [Compound 20] | ++ (++ indicates 40-79% compound remaining after 4 hours) | +++ (+++ indicates 80-99% compound remaining after 4 hours) | ++++ (++++ indicates distribution above 70%) | ++++ (++++ indicates distribution above 70%) | ++++ (++++ indicates distribution above 70%) | +++ (+++ indicates distribution between 40 and 69%) |  | ++++ (++++ indicates distribution above 70%)
< 2 | C=CCCN1CC2N(C(=O)c3ccc(C(F)(F)F)cc3)CCC(=O)N2C(C)C1=O (stereo not drawn) [Compound 22] | +++ (+++ indicates 80-99% compound remaining after 4 hours) | +++ (+++ indicates 80-99% compound remaining after 4 hours) | ++ (++ indicates distribution between 5 and 39%) | ++ (++ indicates distribution between 5 and 39%) | ++ (++ indicates distribution between 5 and 39%) | ++ (++ indicates distribution between 5 and 39%) |  | +++ (+++ indicates distribution between 40 and 69%)
